# In ChEMBL document CHEMBL1201862, “PubChem BioAssay data set” (2004):
#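 Briefly, cells in 96-well plates were exposed to five compound concentrations for 48 h, and endpoints were estimated by linear interpolation. GI50 = concentration required for 50% inhibition of growth.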 The source made the active and inactive calls. Cut-off read from the data, not from the text of the source: active = GI50 up to about 1.1 µM and inactive = higher.
# Columns and labels:
# Assay in all cases: growth of human tumour cells (NCI), 48 h
# [1] = system: HCT-15
# [2] = system: HL-60
# [3] = system: IGROV-1
# [4] = system: M14
# [5] = system: M19-MEL
# [6] = system: RPMI-8226
# [7] = system: RXF 393
# [8] = system: SK-MEL-28
# [9] = system: SK-OV-3
# [10] = system: SN12C
# [11] = system: SR
# [12] = system: TK-10
# [13] = system: U-251
# [14] = system: CAKI-1
# [15] = system: LOX IMVI
# [16] = system: SNB-75
# [17] = system: BT-549
# [18] = system: MDA-MB-231
# [19] = system: MDA-MB-435
# [20] = system: NCI/ADR-RES
Compound,GI50 [1] [µM],GI50 [2],GI50 [3],GI50 [4],GI50 [5],GI50 [6],GI50 [7],GI50 [8],GI50 [9],GI50 [10],GI50 [11],GI50 [12],GI50 [13],GI50 [14],GI50 [15],GI50 [16],GI50 [17],GI50 [18],GI50 [19],GI50 [20]
CC1CCC2(OCCO2)[C@]2(C)CC(O)C(=O)C=C12 (stereo partly specified),> 100,> 100 µM (inactive),> 100 µM (inactive),> 100 µM (inactive),> 100 µM (inactive),> 100 µM (inactive),> 100 µM (inactive),> 100 µM (inactive),> 100 µM (inactive),> 100 µM (inactive),> 100 µM (inactive),> 100 µM (inactive),> 100 µM (inactive),,,,,,,
Cc1ccc(S(=O)(=O)N/N=C\c2c3ccccc3[n+](C)c3ccccc23)cc1,25.8,22 µM (inactive),29.6 µM (inactive),26 µM (inactive),32.1 µM (inactive),29.8 µM (inactive),15.9 µM (inactive),31.5 µM (inactive),> 100 µM (inactive),48.6 µM (inactive),,48.3 µM (inactive),24 µM (inactive),17.7 µM (inactive),11.2 µM (inactive),20 µM (inactive),,,,
C/C(CN1C(=O)c2ccccc2C1=O)=N\NS(=O)(=O)c1ccc(Cl)cc1,> 100,> 100 µM (inactive),> 100 µM (inactive),> 100 µM (inactive),> 100 µM (inactive),> 100 µM (inactive),,,,18.8 µM (inactive),> 100 µM (inactive),> 100 µM (inactive),> 100 µM (inactive),> 100 µM (inactive),,> 100 µM (inactive),,,,
Cc1nc2ccccc2c(=O)n1/N=C(\N=N\c1cc(Cl)ccc1Cl)c1cccc(-c2ccco2)c1,74.6,> 10 µM (inactive),61.4 µM (inactive),> 100 µM (inactive),> 100 µM (inactive),42.8 µM (inactive),67.8 µM (inactive),> 100 µM (inactive),> 100 µM (inactive),88.3 µM (inactive),,> 100 µM (inactive),> 100 µM (inactive),> 100 µM (inactive),> 100 µM (inactive),> 100 µM (inactive),,,,
c1cnc2nc3n(c2c1)CSC3,> 100,> 100 µM (inactive),> 100 µM (inactive),> 100 µM (inactive),> 100 µM (inactive),> 100 µM (inactive),> 100 µM (inactive),> 100 µM (inactive),> 100 µM (inactive),> 100 µM (inactive),,> 100 µM (inactive),> 100 µM (inactive),> 100 µM (inactive),> 100 µM (inactive),> 100 µM (inactive),,,,
O=[N+]([O-])c1nccn1COCCI,> 100,> 100 µM (inactive),> 100 µM (inactive),> 100 µM (inactive),> 100 µM (inactive),> 100 µM (inactive),,> 100 µM (inactive),> 100 µM (inactive),> 100 µM (inactive),> 100 µM (inactive),> 100 µM (inactive),> 100 µM (inactive),> 100 µM (inactive),> 100 µM (inactive),> 100 µM (inactive),,,,
COc1ccc(CC2NCCc3c2[nH]c2ccccc32)cc1 (stereo unspecified),52.4,22.4 µM (inactive),83 µM (inactive),41.6 µM (inactive),71.4 µM (inactive),30.4 µM (inactive),,> 100 µM (inactive),> 100 µM (inactive),40.9 µM (inactive),,> 100 µM (inactive),82 µM (inactive),,42 µM (inactive),39.1 µM (inactive),,,,
CCOC(=O)Nc1ccc(S(=O)(=O)I)cc1.CCOC(=O)Nc1ccc(S(=O)(=O)I)cc1.CN(C=O)C1=C(N(C)C=O)C(N(C)C=O)=C(N(C)C=O)C(=O)C1=O,> 100,> 100 µM (inactive),> 100 µM (inactive),> 100 µM (inactive),> 100 µM (inactive),,,> 100 µM (inactive),> 100 µM (inactive),> 100 µM (inactive),> 100 µM (inactive),> 100 µM (inactive),> 100 µM (inactive),> 100 µM (inactive),> 100 µM (inactive),,,,,
CC(=O)C1C(=O)C(=O)N(CCN2C(=O)C(=O)C(C(C)=O)C2=O)C1=O (stereo unspecified),> 100,,> 100 µM (inactive),> 100 µM (inactive),> 100 µM (inactive),> 100 µM (inactive),> 100 µM (inactive),> 100 µM (inactive),> 100 µM (inactive),> 100 µM (inactive),,> 100 µM (inactive),> 100 µM (inactive),> 100 µM (inactive),> 100 µM (inactive),> 100 µM (inactive),,,,
CCc1c(OC(C)=O)c2c(NC3OC(COC(C)=O)C(OC(C)=O)C(OC(C)=O)C3OC(C)=O)nc(OC)nc2oc1=O (stereo unspecified),> 100,> 100 µM (inactive),> 100 µM (inactive),> 100 µM (inactive),> 100 µM (inactive),> 100 µM (inactive),> 100 µM (inactive),,> 100 µM (inactive),> 100 µM (inactive),,> 100 µM (inactive),> 100 µM (inactive),> 100 µM (inactive),> 100 µM (inactive),> 100 µM (inactive),,,,
CC(C)N(C(=O)C12C3C4C5C3C1(C(=O)O)C5C42)C(C)C (stereo unspecified),> 100,> 100 µM (inactive),> 100 µM (inactive),> 100 µM (inactive),> 100 µM (inactive),> 100 µM (inactive),,> 100 µM (inactive),> 100 µM (inactive),> 100 µM (inactive),,> 100 µM (inactive),> 100 µM (inactive),> 100 µM (inactive),> 100 µM (inactive),61.2 µM (inactive),,,,
COc1c(C2=NC(C(C)C)CO2)ccc2ccccc12 (stereo unspecified),5.11,14.6 µM (inactive),71 µM (inactive),63.5 µM (inactive),55.5 µM (inactive),22.6 µM (inactive),16.4 µM (inactive),38.6 µM (inactive),> 100 µM (inactive),64.3 µM (inactive),,88.3 µM (inactive),,61.5 µM (inactive),21.5 µM (inactive),27.6 µM (inactive),,,,
COc1cccc(N2C(=O)[C@H]3[C@H]4CC(C(C)(C)C)CC[C@H]4c4c([nH]c5ccccc45)[C@H]3C2=O)c1 (stereo partly specified),34.6,28 µM (inactive),17.1 µM (inactive),15.1 µM (inactive),19 µM (inactive),15.4 µM (inactive),21.1 µM (inactive),18.7 µM (inactive),20.8 µM (inactive),13.4 µM (inactive),,15.2 µM (inactive),,17.2 µM (inactive),16.5 µM (inactive),15.3 µM (inactive),,,,
CCN1CCC(O)(/C=C/c2ccc(C(C)C)cc2)C(C(=O)/C=C/c2ccc(C(C)C)cc2)C1 (stereo unspecified),2,2.98 µM (inactive),2.05 µM (inactive),3.1 µM (inactive),,0.697 µM (active),2.56 µM (inactive),4.51 µM (inactive),14 µM (inactive),2.47 µM (inactive),1.38 µM (inactive),2.34 µM (inactive),2.61 µM (inactive),4.34 µM (inactive),0.895 µM (active),4.62 µM (inactive),4.15 µM (inactive),1.87 µM (inactive),2.96 µM (inactive),3.08 µM (inactive)
CC(NNC(=O)c1ccncc1)c1ccccc1 (stereo unspecified),> 100,> 100 µM (inactive),> 100 µM (inactive),> 100 µM (inactive),,> 100 µM (inactive),> 100 µM (inactive),> 100 µM (inactive),> 100 µM (inactive),> 100 µM (inactive),> 100 µM (inactive),> 100 µM (inactive),> 100 µM (inactive),> 100 µM (inactive),> 100 µM (inactive),> 100 µM (inactive),> 100 µM (inactive),> 100 µM (inactive),> 100 µM (inactive),> 100 µM (inactive)
O=C(OCc1ccccc1)N(CCCCN(CCCNC(=O)C(F)(F)F)C(=O)OCc1ccccc1)CCCNC(=O)C(F)(F)F,> 100,> 100 µM (inactive),> 100 µM (inactive),> 100 µM (inactive),,> 100 µM (inactive),> 100 µM (inactive),> 100 µM (inactive),> 100 µM (inactive),> 100 µM (inactive),> 100 µM (inactive),> 100 µM (inactive),> 100 µM (inactive),1.56 µM (inactive),> 100 µM (inactive),> 100 µM (inactive),> 100 µM (inactive),> 100 µM (inactive),> 100 µM (inactive),22.5 µM (inactive)
O=C1/C(=C\c2ccc(Br)cc2)CCCc2ccccc21,12.4,14.2 µM (inactive),16.4 µM (inactive),29.6 µM (inactive),,17.1 µM (inactive),21 µM (inactive),18.9 µM (inactive),35.6 µM (inactive),16.5 µM (inactive),23 µM (inactive),18.7 µM (inactive),15 µM (inactive),29.3 µM (inactive),16.3 µM (inactive),18.8 µM (inactive),24 µM (inactive),18.5 µM (inactive),19.2 µM (inactive),13.4 µM (inactive)
CC12NC(=C(C#N)C#N)C(C#N)=C3NC(N)=C(C#N)C(=C31)Oc1ccccc12 (stereo unspecified),28.8,5.74 µM (inactive),4.01 µM (inactive),> 44.4 µM (inactive),,> 32.7 µM (inactive),2.53 µM (inactive),> 66.7 µM (inactive),75 µM (inactive),> 30.7 µM (inactive),2.59 µM (inactive),> 31 µM (inactive),18.1 µM (inactive),> 29.4 µM (inactive),5.83 µM (inactive),> 57.1 µM (inactive),> 24.8 µM (inactive),> 30.1 µM (inactive),> 30.1 µM (inactive),> 100 µM (inactive)
